This is an account of results in patent US8889667B2 (Agios Pharmaceuticals, Inc, priority 2010, dated 2014).

The target of the experiment is PKM2 (Homo sapiens, UniProt P14618). Description: PKM2 Assay (activation, LDH-coupled, absorbance at 340 nm). The format is biochemical. Summed up: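 Human PKM2 (50 ng/well) was preincubated with compound and coupling mix for 30 min at 4 °C without ADP. Reactions were then started with ADP (0.7 mM) alongside PEP 0.15 mM, NADH 180 μM and LDH, in Tris pH 7.5/KCl/MgCl2/DTT/BSA buffer. A340 was followed at 25 °C and activation reported as AC50.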
PKM2, sequence (P14618 whole entry): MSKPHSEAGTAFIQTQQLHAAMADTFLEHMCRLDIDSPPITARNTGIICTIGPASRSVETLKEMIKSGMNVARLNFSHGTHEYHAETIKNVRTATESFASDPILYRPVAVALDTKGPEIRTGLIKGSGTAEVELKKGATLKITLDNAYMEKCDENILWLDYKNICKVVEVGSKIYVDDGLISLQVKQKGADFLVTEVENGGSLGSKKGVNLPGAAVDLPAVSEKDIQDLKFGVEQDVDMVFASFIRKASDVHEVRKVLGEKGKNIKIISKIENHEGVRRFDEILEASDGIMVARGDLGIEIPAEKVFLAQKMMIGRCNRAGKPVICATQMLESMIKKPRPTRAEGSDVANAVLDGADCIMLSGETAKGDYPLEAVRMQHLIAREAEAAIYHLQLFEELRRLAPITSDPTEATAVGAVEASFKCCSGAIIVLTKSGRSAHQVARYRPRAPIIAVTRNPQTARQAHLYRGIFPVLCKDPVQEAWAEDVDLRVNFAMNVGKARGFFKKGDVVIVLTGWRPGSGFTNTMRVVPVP

In general, AC50 refers to the concentration giving half of the maximal activity seen. A lower AC50 goes with activity at low concentration.

Compound `O=C1CN(C(=O)c2ccc(NS(=O)(=O)c3cccc4cccnc34)cc2)CCN1Cc1cc(F)cc(F)c1` [Compound 216, N-(4-(4-(3,5-difluorobenzyl)-3-oxopiperazine-1-carbonyl)phenyl)quinoline-8-sulfonamide] returned an AC50 (Table 4) of less than 100 nM.
In turn, `C[C@@H]1CN(C(=O)O[C@@H]2CCOC2)CCN1C(=O)c1ccc(NS(=O)(=O)c2cccc3cccnc23)cc1` [Compound 126, (R)—((R)-tetrahydrofuran-3-yl)-3-methyl-4-(4-(quinoline-8-sulfonamido)benzoyl)piperazine-1-carboxylate] displayed an AC50 (Table 4) of 100 to 500 nM.
For `O=C(c1ccc(NS(=O)(=O)c2cccc3cccnc23)c(OC(F)(F)F)c1)N1CCN(CCCc2ccccc2)CC1` [Compound 389], the AC50 (Table 5) lay within 500 to 1000 nM.
Consider `CC(C)[C@H]1CN(Cc2cc(F)cc(F)c2)CCN1C(=O)c1ccc(NS(=O)(=O)c2cccc3cccnc23)cc1` [Compound 176], for which the AC50 (Table 4) fell in the range of 1000 to 20000 nM.
In the case of `COc1cc(C(=O)N2CCN(C(C)(C)c3ccccc3)CC2)ccc1NS(=O)(=O)c1cccc2cccnc12` [Compound 356, N-(2-methoxy-4-(4-(2-phenylpropan-2-yl)piperazine-1-carbonyl)phenyl)quinoline-8-sulfonamide], the AC50 (Table 5) is less than 100 nM.
The compound `O=C(c1ccc(NS(=O)(=O)c2cccc3cccnc23)cc1)N1CCN(Cc2cc(F)cc(F)c2)C[C@@H]1c1ccccc1` [Compound 181] displayed a half-maximal activity concentration (AC50) (Table 4) of 100 to 500 nM.
`CCOC(=O)N1CCN(C(=O)c2ccc(NS(=O)(=O)c3cccc4cccnc34)nc2)CC1` [Compound 446, Ethyl 4-(6-(quinoline-8-sulfonamido)nicotinoyl)piperazine-1-carboxylate] came in with an AC50 (Table 5) of 1000 to 20000 nM.
With `C[C@H]1CN(Cc2ccc(F)c(F)c2F)CCN1C(=O)c1ccc(NS(=O)(=O)c2cccc3cccnc23)cc1` [Compound 154, (S)—N-(4-(2-methyl-4-(2,3,4-trifluorobenzyl)piperazine-1-carbonyl)phenyl)quinoline-8-sulfonamide], where the note is “Table 4”, the AC50 was in the range of 100 to 500 nM.
`O=C(c1ccc(NS(=O)(=O)c2cccc3cccnc23)cc1)N1CCN(C(c2ccc(F)cc2)C(F)(F)F)CC1` (centres unmarked) [Compound 351, N-(4-(4-(2,2,2-trifluoro-1-(4-fluorophenyl)ethyl)piperazine-1-carbonyl)phenyl)quinoline-8-sulfonamide] registered an AC50 (Table 5) of less than 100 nM.
`COc1cc(C(=O)N2CCN(C3(c4ccccc4)CC3)CC2)ccc1NS(=O)(=O)c1cccc2cccnc12` [Compound 352, N-(2-methoxy-4-(4-(1-phenylcyclopropyl)piperazine-1-carbonyl)phenyl)quinoline-8-sulfonamide] registered an AC50 (Table 5) of 100 to 500 nM.
In the case of `O=C(c1ccc(NS(=O)(=O)c2cccc3cccnc23)cc1Cl)N1CCN(Cc2cc(F)c(F)cc2F)CC1` [Compound 433, N-(3-chloro-4-(4-(2,4,5-trifluorobenzyl)piperazine-1-carbonyl)phenyl)quinoline-8-sulfonamide], under “Table 5”, the half-maximal activity concentration (AC50) was less than 100 nM.
Where the note is “Table 5”, `COc1ccc(CN2CCN(C(=O)c3ccc(NS(=O)(=O)c4cccc5cccnc45)c(OC(F)(F)F)c3)CC2)c(OC)c1` [Compound 333, N-(4-(4-(2,4-dimethoxybenzyl)piperazine-1-carbonyl)-2-(trifluoromethoxy)phenyl)quinoline-8-sulfonamide] had an AC50 of 500 to 1000 nM.
Turning to `CC(c1ccc(F)cc1F)N1CCN(C(=O)c2ccc(NS(=O)(=O)c3cccc4cccnc34)cc2)[C@@H](C)C1` (some centres unmarked) [Compound 169], the AC50 (Table 4) is 100 to 500 nM.
The same measure, in the same setting: under `CC1CN(Cc2ccc(F)cc2)CC(C)N1C(=O)c1ccc(NS(=O)(=O)c2cccc3cccnc23)cc1` (centres unmarked) [Compound 196, N-(4-(4-(4-fluorobenzyl)-2,6-dimethylpiperazine-1-carbonyl)phenyl)quinoline-8-sulfonamide] stands less than 100 nM; under `CC(c1c(F)ccc(F)c1F)N1CCN(C(=O)c2ccc(NS(=O)(=O)c3cccc4cccnc34)cc2)[C@@H](C)C1` (stereo partly drawn) [Compound 192, N-(4-((2S)-2-methyl-4-(1-(2,3,6-trifluorophenyl)ethyl)piperazine-1-carbonyl)phenyl)quinoline-8-sulfonamide], 100 to 500 nM.
As to `O=C(c1ccc(NS(=O)(=O)c2cccc3cccnc23)c(C(F)(F)F)c1)N1CCN(CC2CCCO2)CC1` (centres unmarked) [Compound 329, N-(4-(4-((tetrahydrofuran-2-yl)methyl)piperazine-1-carbonyl)-2-(trifluoromethyl)phenyl)quinoline-8-sulfonamide], the AC50 (Table 5) lay in the range of 1000 to 20000 nM.
Turning to `O=C(c1ccc(NS(=O)(=O)c2cccc3cccnc23)cc1)N1CCN(C(=O)c2cnns2)CC1` [Compound 313, N-(4-(4-(1,2,3-thiadiazole-5-carbonyl)piperazine-1-carbonyl)phenyl)quinoline-8-sulfonamide], the concentration at half-maximal activity (AC50) (Table 5) is less than 100 nM.
On the same count and under the same terms, under `COc1cc(C(=O)N2CCN(C(=O)c3cscn3)CC2)ccc1NS(=O)(=O)c1cccc2cccnc12` [Compound 322, N-(2-methoxy-4-(4-(thiazole-4-carbonyl)piperazine-1-carbonyl)phenyl)quinoline-8-sulfonamide] stands 100 to 500 nM; under `O=C(c1ccc(NS(=O)(=O)c2cccc3cccnc23)c(OC(F)(F)F)c1)N1CCN(Cc2cccc(F)c2)CC1` [Compound 377, N-(4-(4-(3-fluorobenzyl)piperazine-1-carbonyl)-2-(trifluoromethoxy)phenyl)quinoline-8-sulfonamide], 100 to 500 nM.
As for `C[C@@H]1CN(C(=O)c2ccccn2)CCN1C(=O)c1ccc(NS(=O)(=O)c2cccc3cccnc23)cc1` [Compound 103], the AC50 (Table 4) lay in the range of 100 to 500 nM.
Still for that read-out and setting: under `COc1ccccc1N1C[C@@H](C)N(C(=O)c2ccc(NS(=O)(=O)c3cccc4cccnc34)cc2)[C@@H](C)C1` [Compound 222, N-(4-((2R,6S)-4-(2-methoxyphenyl)-2,6-dimethylpiperazine-1-carbonyl)phenyl)quinoline-8-sulfonamide] stands less than 100 nM.
`C[C@H]1CN(CC2CCCC2)CCN1C(=O)c1ccc(NS(=O)(=O)c2cccc3cccnc23)cc1` [Compound 140, (S)—N-(4-(4-(cyclopentylmethyl)-2-methylpiperazine-1-carbonyl)phenyl)quinoline-8-sulfonamide]: the AC50 (Table 4) is less than 100 nM.
For `O=C(c1ccc(NS(=O)(=O)c2cccc3cccnc23)cc1)N1CCN(C(=O)C2CCOCC2)CC1` [Compound 417, N-(4-(4-(tetrahydro-2H-pyran-4-carbonyl)piperazine-1-carbonyl)phenyl)quinoline-8-sulfonamide], the AC50 (Table 5) is 100 to 500 nM.
For `O=C(c1ccc(NS(=O)(=O)c2cccc3cccnc23)cc1)N1C2CCC1CN(Cc1cc(F)cc(F)c1)C2` [Compound 227, N-(4-(3-(3,5-difluorobenzyl)-3,8-diazabicyclo[3.2.1]octane-8-carbonyl)phenyl)quinoline-8-sulfonamide], the AC50 (Table 4) was 100 to 500 nM.
Regarding `O=C(c1ccc(NS(=O)(=O)c2cccc3cccnc23)c(OC(F)(F)F)c1)N1CCN(Cc2ccc(Cl)cc2F)CC1` [Compound 339, N-(4-(4-(4-chloro-2-fluorobenzyl)piperazine-1-carbonyl)-2-(trifluoromethoxy)phenyl)quinoline-8-sulfonamide], the AC50 (Table 5) fell in the range of 100 to 500 nM.
In turn, `CC1CN(Cc2cc(F)c(F)c(F)c2)CC(C)N1C(=O)c1ccc(NS(=O)(=O)c2cccc3cccnc23)cc1` (centres unmarked) [Compound 201, N-(4-(2,6-dimethyl-4-(3,4,5-trifluorobenzyl)piperazine-1-carbonyl)phenyl)quinoline-8-sulfonamide] came in with an AC50 (Table 4) of 100 to 500 nM.
Regarding `CCOC(=O)N1[C@H](C)CN(C(=O)c2ccc(NS(=O)(=O)c3cccc4cccnc34)cc2)C[C@@H]1C` [Compound 117, (2S,6R)-ethyl 2,6-dimethyl-4-(4-(quinoline-8-sulfonamido)benzoyl)piperazine-1-carboxylate], the AC50 (Table 4) is greater than 20000 nM.
For the setting “Table 5”, `O=C(c1ccc(NS(=O)(=O)c2cccc3cccnc23)c(OC(F)(F)F)c1)N1CCN(Cc2ccc(F)cc2F)CC1` [Compound 369, N-(4-(4-(2,4-difluorobenzyl)piperazine-1-carbonyl)-2-(trifluoromethoxy)phenyl)quinoline-8-sulfonamide] returned an AC50 of 500 to 1000 nM.
The compound `O=C(c1ccc(NS(=O)(=O)c2cccc3cccnc23)cc1)N1C2CCC1CN(CC1CC1)C2` [Compound 228, N-(4-(3-(cyclopropylmethyl)-3,8-diazabicyclo[3.2.1]octane-8-carbonyl)phenyl)quinoline-8-sulfonamide] came in with an AC50 (Table 4) of 100 to 500 nM.
As for `O=C(c1ccc(NS(=O)(=O)c2cccc3cccnc23)c(OC(F)(F)F)c1)N1CCN(Cc2c[nH]cn2)CC1` [Compound 381, N-(4-(4-((1H-imidazol-4-yl)methyl)piperazine-1-carbonyl)-2-(trifluoromethoxy)phenyl)quinoline-8-sulfonamide], for the setting “Table 5”, the AC50 lay within 100 to 500 nM.
On to `C[C@H]1CN(Cc2ccc(F)cc2)CCN1C(=O)c1ccc(NS(=O)(=O)c2cccc3cccnc23)cc1` [Compound 152, (S)—N-(4-(4-(4-fluorobenzyl)-2-methylpiperazine-1-carbonyl)phenyl)quinoline-8-sulfonamide], for which the AC50 (Table 4) is less than 100 nM.
Same read-out and setting: as for `C[C@@H]1CN(CC2CCCC2)CCN1C(=O)c1ccc(NS(=O)(=O)c2cccc3cccnc23)cc1` [Compound 114, (R)—N-(4-(4-(cyclopentylmethyl)-2-methylpiperazine-1-carbonyl)phenyl)quinoline-8-sulfonamide], the figure is less than 100 nM.
Same read-out and setting: under `CC1CN(C(=O)c2ccccn2)CC(C)N1C(=O)c1ccc(NS(=O)(=O)c2cccc3cccnc23)cc1` (racemic) [Compound 116] stands 1000 to 20000 nM.
In the case of `O=C(c1ccc(NS(=O)(=O)c2cccc3cccnc23)cc1F)N1CCN(Cc2ccc(F)cc2)CC1` [Compound 420, N-(3-fluoro-4-(4-(4-fluorobenzyl)piperazine-1-carbonyl)phenyl)quinoline-8-sulfonamide], the AC50 (Table 5) was less than 100 nM.
For the setting “Table 5”, `O=C(c1ccc(NS(=O)(=O)c2cccc3cccnc23)cc1F)N1CCN(CC2CCCO2)CC1` (centres unmarked) [Compound 437, N-(3-fluoro-4-(4-((tetrahydrofuran-2-yl)methyl)piperazine-1-carbonyl)phenyl)quinoline-8-sulfonamide] displayed an AC50 of less than 100 nM.
